Assay results as given in US20230105212A1, “BIPHENYL DERIVATIVE INHIBITOR, PREPARATION METHOD THEREFOR AND USE THEREOF” (SHANGHAI HANSOH BIOMEDICAL CO., LTD., priority 2020, published 2023).
Read-outs that look alike come from different tables or passages of the source.

Columns and labels:
[1] = Pharmacokinetics test in Balb/C mice; type: in vivo; details: male, mouse, po, p.o. 5 mg/kg, plasma; for MRT inf: read-out: Average residence time MRT0−∞; for AUC(0-t): read-out: Curve area AUC0−t; for Cmax: read-out: Drug concentration in plasma Cmax; for half-life: read-out: Half life t1/2 (converted); for Tmax: read-out: Peak time tmax
Protocol: Test Embodiment 6. Pharmacokinetics Test in Balb/C Mice
Taking Balb/C mice as the test animals, the pharmacokinetic behavior in the plasma of mice of the following compound embodiments was studied when orally administered at a dose of 5 mg/kg.
Balb/C Mouse 6/embodiment, male, Shanghai Jisijie Laboratory Animal Co., Ltd., animal production license number (SCXK (Shanghai) 2013-0006 No. 311620400001794).
0.5% HPMC (1% Tween 80), dissolved by sonication, to prepare a clear solution or a homogeneous suspension.
Balb/C mice, male; p.o. after overnight fasting, respectively, at a dose of 5 mg/kg, administered in a volume of 10 mL/kg.
Before and after administration of mice, at 0, 0.5, 1, 2, 4, 6, 8 and 24 hours, 0.1 mL of blood was collected from the orbit, placed in an EDTA-K2 test tube, and centrifuged at 6000 rpm at 4° C. for 6 min to separate the plasma, stored at −80° C.
1) 40 μL of plasma samples were added to 160 μL of acetonitrile for precipitation, mixed and centrifuged at 3500×g for 5 to 20 minutes.
2) 100 μL of the supernatant solution after treatment was taken for LC/MS/MS to analyze the concentration of the compounds to be tested.
2.6 Liquid Phase Analysis • Liquid phase condition: Shimadzu LC-20AD pump • MS conditions: AB Sciex API 4000 Mass Spectrometer • Chromatographic column: phenomenex Gemiu 5 μm C18 50×4.6 mm • Mobile phase: A solution was aqueous 0.1% formic acid solution, B solution was acetonitrile • Flow rate: 0.8 mL/min • Elution time: 0 to 4.0 minutes, the eluent was as follows:
The main parameters of pharmacokinetics were calculated with WinNonlin 8.2, and the results of the mice pharmacokinetic experiments were shown in the following table: […]

[2] = target: T1, human PD-L1 protein (Homo sapiens, UniProt Q9NZQ7); assay: Thermal shift: melting temperature of PD-L1 protein; type: binding; details: read-out: ΔTm (° C.)
T1 construct: purchased Acro Biosystems PD1-H5229
Method in brief: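 Human PD-L1 at 2 μM final was tested in […], 150 mM NaCl with SYPRO Orange, heated 25→95 °C at 0.03 °C/s in a PCR melt-curve run. Tm was taken per treatment; ΔTm is the shift relative to DMSO vehicle.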

[3] = target: T2, PD-L1 protein on the surface of MC38-hPDL1 tumor cells (Homo sapiens, UniProt Q9NZQ7); assay: Induction of endocytosis of PD-L1 on the surface of tumor cells (flow cytometry); type: cell-based; details: 16 hours incubation; for Emax: MC38-hPDL1 cells, read-out: MC38 maximum endocytosis rate; for IC50: inducing endocytosis of PD-L1, MC38-hPDL1 cells, read-out: MC38 IC50
T2 construct: expressed in transfected cells; host or cells: MC38-hPDL1 (mouse colon cancer cells)
Method in brief: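 MC38-hPDL1 mouse colon cancer cells overexpressing human PD-L1 were exposed to compound dilutions for 16 h at 37 °C. Surface PD-L1 was then stained with PE anti-human CD274 for 30 min at room temperature and measured by flow cytometry. Endocytosis rate versus concentration was fitted by nonlinear regression to give IC50.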

[4] = compound 10 μM, PD-L1 protein 2 μM, Tm minus DMSO vehicle control

T1 sequence (Q9NZQ7 19-238 limits assumed): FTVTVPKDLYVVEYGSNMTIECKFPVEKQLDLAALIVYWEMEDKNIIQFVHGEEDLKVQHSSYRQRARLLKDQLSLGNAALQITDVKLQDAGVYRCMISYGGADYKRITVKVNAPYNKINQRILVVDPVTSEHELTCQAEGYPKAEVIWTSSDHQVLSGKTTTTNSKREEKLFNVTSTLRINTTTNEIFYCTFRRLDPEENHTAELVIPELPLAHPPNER
T2 sequence (Q9NZQ7 19-290): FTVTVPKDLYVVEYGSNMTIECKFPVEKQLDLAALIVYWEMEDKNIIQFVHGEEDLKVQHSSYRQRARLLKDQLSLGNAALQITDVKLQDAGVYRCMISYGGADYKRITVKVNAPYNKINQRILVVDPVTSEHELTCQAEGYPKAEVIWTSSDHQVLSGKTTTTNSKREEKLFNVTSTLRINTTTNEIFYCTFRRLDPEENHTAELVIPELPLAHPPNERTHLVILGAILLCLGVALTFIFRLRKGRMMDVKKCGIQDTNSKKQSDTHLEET

Row | Compound | MRT inf [1] [h] | AUC(0-t) [1] [ng·h/mL] | Cmax [1] [ng/mL] | half-life [1] [h] | Tmax [1] [h] | ΔTm at 10 µM [2, 4] [°C] | Emax [3] [%] | IC50 [3] [nM] | ΔTm at 10 µM [2] [°C]
1 | COc1nc(-c2cccc(-c3cccc(NC(=O)c4nc5c(n4C)CCN(C)C5)c3Cl)c2Cl)ccc1CN1CC2(C1)CN(C(=O)C(C)C)C2 [Embodiment 186, N-(2,2′-Dichloro-3′-(5-((6-isobutyryl-2,6-diazaspiro[3.3]heptan-2-yl)methyl)-6-methoxypyridin-2-yl)-[1,1′-biphenyl]-3-yl)-1,5-dimethyl-4,5,6,7-tetrahydro-1H-imidazo[4,5-c]pyridine-2-carboxamide] | 22.5 | 537 | 31 | 15.2 | 2 | 21.4 | 96 | 0.7 | –
2 | COc1nc(-c2cccc(-c3cccc(NC(=O)c4nc5c(n4C)CCN(C)C5)c3Cl)c2Cl)ncc1CN1CC(CO)C1 [Embodiment 223, N-(2,2′-Dichloro-3′-(5-((3-(hydroxymethyl)azetidin-1-yl)methyl)-4-methoxypyrimidin-2-yl)-[1,1′-biphenyl]-3-yl)-1,5-dimethyl-4,5,6,7-tetrahydro-1H-imidazo[4,5-c]pyridine-2-carboxamide] | 16 | 356 | 24 | 10.5 | 1 | 12.3 | 94 | – | –
3 | COc1nc(-c2cccc(-c3cccc(NC(=O)c4nc5c(n4C)CCN(C)C5)c3Cl)c2Cl)ccc1CN1CC2(C1)CN(C(C)=O)C2 [Embodiment 123, N-(3′-(5-((6-Acetyl-2,6-diazaspiro[3.3]heptan-2-yl)methyl)-6-methoxypyridin-2-yl)-2,2′-dichloro-[1,1′-biphenyl]-3-yl)-1,5-dimethyl-4,5,6,7-tetrahydro-1H-imidazo[4,5-c]pyridine-2-carboxamide] | 12.8 | 778 | 59 | 6.7 | 4 | – | 97 | 0.4 | 16.5
4 | COc1nc(-c2cccc(-c3cccc(NC(=O)c4nc5c(n4C)CCN(C)C5)c3Cl)c2Cl)ccc1CNC[C@H](C)O [Embodiment 127, (S)—N-(2,2′-Dichloro-3′-(5-(((2-hydroxypropyl)amino)methyl)-6-methoxypyridin-2-yl)-[1,1′-biphenyl]-3-yl)-1,5-dimethyl-4,5,6,7-tetrahydro-1H-imidazo[4,5-c]pyridine-2-carboxamide] | 69 | 743 | 37 | 47 | 6 | 18.7 | 97 | 0.7 | –
5 | COc1nc(-c2cccc(-c3cccc(NC(=O)c4nc5c(n4C)CCN(C)C5)c3Cl)c2Cl)ccc1CN1CC2(CC(NC(C)=O)C2)C1 [Embodiment 234, N-(3′-(5-((6-Acetylamino-2-azaspiro[3.3]heptan-2-yl)methyl)-6-methoxypyridin-2-yl)-2,2′-dichloro-[1,1′-biphenyl]-3-yl)-1,5-dimethyl-4,5,6,7-tetrahydro-1H-imidazo[4,5-c]pyridine-2-carboxamide] | 20.8 | 273 | 25 | 14.3 | 2 | 15.6 | 97 | – | –
6 | COc1nc(-c2cccc(-c3cccc(NC(=O)c4nc5c(n4C)CCN(C)C5)c3Cl)c2Cl)ccc1CN1CC(F)C1 [Embodiment 120, N-(2,2′-Dichloro-3′-(5-((3-fluoroazetidin-1-yl)methyl)-6-methoxypyridin-2-yl)-[1,1′-biphenyl]-3-yl)-1,5-dimethyl-4,5,6,7-tetrahydro-1H-imidazo[4,5-c]pyridine-2-carboxamide] | 17 | 500 | 34 | 12 | 2 | – | 95 | 1.2 | 15.8
7 | COc1nc(-c2cccc(-c3cccc(NC(=O)c4nc5c(n4C)CCN(C)C5)c3Cl)c2Cl)ccc1CN1CC2(COC2)C1 [Embodiment 124, N-(3′-(5-((2-Oxa-6-azaspiro[3.3]heptan-6-yl)methyl)-6-methoxypyridin-2-yl)-2,2′-dichloro-[1,1′-biphenyl]-3-yl)-1,5-dimethyl-4,5,6,7-tetrahydro-1H-imidazo[4,5-c]pyridine-2-carboxamide] | 25 | 523 | 36 | 20 | 4 | 16.2 | 96 | 0.4 | –
